In this assay the target is T1, crosslinked smooth muscle actomyosin (chicken gizzard smooth muscle myosin subfragment-1 crosslinked to cardiac or skeletal actin) (Gallus gallus, UniProt P10587).
T1 construct: chicken gizzard smooth muscle myosin subfragment-1; from tissue; host or cells: chicken gizzard
Nature of the assay: Lead optimization pyruvate kinase/horseradish peroxidase/pyruvate oxidase-coupled ATPase assay (compound dose response). It is filed as biochemical. As to conditions: read-out: IC50 Arithmetic Mean. The gist of the method: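 IC50 is the midpoint of a 4-parameter dose–response fit of Amplex Red fluorescence (480/615 nm). Buffer was 12 mM potassium PIPES pH 7.00 at 22 °C with 100 mM KCl, 2 mM MgCl2, 0.15 mM ATP and 2 mM phosphate, with PK/pyruvate oxidase/HRP coupling. Enzyme: smooth muscle myosin S1 crosslinked to cardiac or skeletal actin, dosed empirically by activity.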

In general, IC50 refers to the point on the concentration scale where inhibition reaches its midpoint. Take `CCc1ccc(NC(=O)OCC2(C(=O)NCc3ccccc3Cl)CCN(C(=O)CCOC)CC2)cc1` [N-[(2-chlorophenyl)methyl](4-{[N-(4-ethylphenyl)carbamoyloxy]methyl}-1-(3-methoxypropanoyl)(4-piperidyl))carboxamide]: the IC50 turned out to be 606 nM. As for `CCc1ccc(NC(=O)OCC2(C(=O)NCc3ccccc3Cl)CCN(C(=O)c3cccnc3)CC2)cc1` [N-[(2-chlorophenyl)methyl](4-{[N-(4-ethylphenyl)carbamoyloxy]methyl}-1-(3-pyridylcarbonyl)(4-piperidyl))carboxamide], the figure is 695 nM; as for `CCc1ccc(NC(=O)OCC2(C(=O)NCc3ccccc3Cl)CCN(C(=O)CCCO)CC2)cc1` [N-[(2-chlorophenyl)methyl](4-{[N-(4-ethylphenyl)carbamoyloxy]methyl}-1-(4-hydroxybutanoyl)(4-piperidyl))carboxamide], 492 nM. The figure for `CCc1ccc(NC(=O)OCC2(C(=O)NCc3ccccc3Cl)CCN(C(=O)C3CCNCC3)CC2)cc1` [N-[(2-chlorophenyl)methyl](4-{[N-(4-ethylphenyl)carbamoyloxy]methyl}-1-(4-piperidylcarbonyl)(4-piperidyl))carboxamide] is 808 nM.

On to `CCc1ccc(NC(=O)OCC2(C(=O)NCc3ccccc3Cl)CCN(C(=O)NC)CC2)cc1` [N-[(2-chlorophenyl)methyl](4-{[N-(4-ethylphenyl)carbamoyloxy]methyl}-1-(N-methylcarbamoyl)(4-piperidyl))carboxamide], for which the 50% inhibitory concentration (IC50) was 302 nM. The figure for `CCc1ccc(NC(=O)OCC2(C(=O)NCc3ccccc3Cl)CCN(C(=O)c3ncc[nH]3)CC2)cc1` [N-[(2-chlorophenyl)methyl](4-{[N-(4-ethylphenyl)carbamoyloxy]methyl}-1-(imidazol-2-ylcarbonyl)(4-piperidyl))carboxamide] is 394 nM.

As to `CCc1ccc(NC(=O)OCC2(C(=O)NCc3ccccc3Cl)CCN(S(C)(=O)=O)CC2)cc1` [N-[(2-chlorophenyl)methyl](4-{[N-(4-ethylphenyl)carbamoyloxy]methyl}-1-(methylsulfonyl)(4-piperidyl))carboxamide], the half-inhibitory concentration (IC50) amounted to 496 nM. Consider `CCc1ccc(NC(=O)OCC2(C(=O)NCc3ccccc3Cl)CCN(C(=O)C3COCCN3)CC2)cc1` (stereo not shown) [N-[(2-chlorophenyl)methyl](4-{[N-(4-ethylphenyl)carbamoyloxy]methyl}-1-(morpholin-3-ylcarbonyl)(4-piperidyl))carboxamide], for which the 50% inhibitory concentration (IC50) came to 515 nM. For `CCc1ccc(NC(=O)OCC2(C(=O)NCc3ccccc3Cl)CCN(C(=O)c3ccccc3)CC2)cc1` [N-[(2-chlorophenyl)methyl](4-{[N-(4-ethylphenyl)carbamoyloxy]methyl}-1-(phenylcarbonyl)(4-piperidyl))carboxamide], the IC50 was 412 nM. The figure for `CCc1ccc(NC(=O)OCC2(C(=O)NCc3ccccc3Cl)CCN(C(=O)CNC)CC2)cc1` [N-[(2-chlorophenyl)methyl](4-{[N-(4-ethylphenyl)carbamoyloxy]methyl}-1-[2-(methylamino)acetyl](4-piperidyl))carboxamide] is 213 nM; for `CCc1ccc(NC(=O)OCC2(C(=O)NCc3ccccc3Cl)CCN(C(=O)C(C)NC)CC2)cc1` (stereo not shown) [N-[(2-chlorophenyl)methyl](4-{[N-(4-ethylphenyl)carbamoyloxy]methyl}-1-[2-(methylamino)propanoyl](4-piperidyl))carboxamide] it is 1780 nM; for `CCc1ccc(NC(=O)OCC2(C(=O)NCc3ccccc3Cl)CCN(C(=O)C(C)(CO)CO)CC2)cc1` [N-[(2-chlorophenyl)methyl](4-{[N-(4-ethylphenyl)carbamoyloxy]methyl}-1-[3-hydroxy-2-(hydroxymethyl)-2-methylpropanoyl](4-piperidyl))carboxamide] it is 275 nM. The figure for `CCc1ccc(NC(=O)OCC2(C(=O)NCc3ccccc3Cl)CCN(Cc3ccccc3)CC2)cc1` [N-[(2-chlorophenyl)methyl](4-{[N-(4-ethylphenyl)carbamoyloxy]methyl}-1-benzyl(4-piperidyl))carboxamide] is 14400 nM.

The record behind these values is patent US8071625B2, “Certain chemical entities, compositions, and methods” (Cytokinetics, Inc., priority 2006, dated 2011).
